In article PMC13224100, “Esterase-Responsive Mitochondria-Targeted Hydropersulfide Donors Mitigate Doxorubicin Cardiotoxicity While Preserving Anticancer Activity” (Angewandte Chemie (International ed. in English), 2025):

Tested on: HepG2 cells
Assay: Cytotoxicity of RSSH donors, CCK-8 assay
Assay type: cell-based
Settings: up to 200 μM, 24 h
Description: We next evaluated the effects of RSSH donors on DOX activity in three representative cancer cell lines: triple-negative breast cancer MDA-MB-468, ER-positive breast cancer MCF-7, and hepatocellular carcinoma HepG2.
Figure S22. Measurement of Cys-SH and GSH in cytoplasm (A, B) and mitochondria (C, D) of H9c2 cells treated with APT-1 (200 µM) APT-1-TPP (200 µM), or vehicle (0.01% DMSO in serum-free medium) for 2 h. Data are mean ± SEM (n = 3); *p ≤ 0.05, **p ≤ 0.01.
Cytotoxicity Assessment of Hydropersulfide Precursors in H9c2 and HepG2 cells Cell viability was measured using the Cell Counting Kit-8 (CCK-8, Dojindo).[7] […] The plates were then incubated for 1-2 h before measuring absorbance at 450 nm using a plate reader […]
calculated as: % Viability = 100 × [Abs₄₅₀ (treated cells) / Abs₄₅₀ (vehicle control)]. […]
Figure S23. […] Results are expressed as mean ± SEM, n≥3; *P<0.05, **P<0.01, ***P<0.001, ****P<0.0001. […]
Cytoprotective studies were performed as previously described.[8] […] The plates were then incubated for 1-2 h before measuring absorbance at […]
The relative % cell viability was calculated as 100 times the ratio of Abs450 (RSSH donor + DOX-exposed) to Abs450 (vehicle, non-DOX-exposed). […]
Basal sulfane sulfur levels were quantified using the fluorescent probe Sulfobiotics SSP4 (Dojindo, SB10) as previously described.[5] […]

SMILES	cytotoxicity of donor alone
COC(=O)C(NC(C)=O)C(C)(C)SSC(=O)N(C)CCOC(C)=O (centres unmarked) [APT-1]	non-toxic
CC(=O)NC(C(=O)N(C)CCC[P+](c1ccccc1)(c1ccccc1)c1ccccc1)C(C)(C)SSC(=O)N(C)CCOC(C)=O (centres unmarked) [APT-1-TPP]	non-toxic
